Test results as given in ChEMBL document CHEMBL4765428, “Design, synthesis, and electrophysiological evaluation of NS6740 derivatives: Exploration of the structure-activity relationship for alpha7 nicotinic acetylcholine receptor silent activation” (Eur J Med Chem, 2020).
Active and inactive are the calls of the source. The calls are words filed in the database; no cut-off is given here.

Legend:
[1] = target: T1, Neuronal acetylcholine receptor subunit alpha-7 (Homo sapiens, UniProt P36544); assay: (§1) Partial agonist activity at human alpha7 nAChR expressed in Xenopus laevis oocytes assessed as inhibition of Ach response at 10 to 30 uM at -60 mV holding potential by measuring net charge preincubated with compound followed by Ach addition by two electrode voltage-clamp assay; assay type: cell-based; conditions: Oocyte, dose 10-30 µM
T1 sequence (P36544 whole entry): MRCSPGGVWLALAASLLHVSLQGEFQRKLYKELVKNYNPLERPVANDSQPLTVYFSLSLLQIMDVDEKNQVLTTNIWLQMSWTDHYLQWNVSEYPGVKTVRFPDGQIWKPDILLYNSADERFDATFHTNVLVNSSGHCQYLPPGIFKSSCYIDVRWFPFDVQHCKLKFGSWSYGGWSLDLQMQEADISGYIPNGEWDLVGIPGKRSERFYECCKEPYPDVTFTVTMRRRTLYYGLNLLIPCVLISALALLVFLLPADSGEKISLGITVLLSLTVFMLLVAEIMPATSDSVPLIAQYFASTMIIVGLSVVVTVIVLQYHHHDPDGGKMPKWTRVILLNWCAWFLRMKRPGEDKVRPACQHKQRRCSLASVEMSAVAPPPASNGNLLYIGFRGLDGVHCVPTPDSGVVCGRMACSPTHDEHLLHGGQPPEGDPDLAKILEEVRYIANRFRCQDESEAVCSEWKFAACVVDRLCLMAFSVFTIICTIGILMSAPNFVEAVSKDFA

[2] = target: T1, Neuronal acetylcholine receptor subunit alpha-7; assay: as §1, with “residual potentiation” for “inhibition”, “10” for “10 to 30”, “addition after PNU-120596 addition” for “addition”; assay type: cell-based; conditions: Oocyte
[3] = target: T1, Neuronal acetylcholine receptor subunit alpha-7; assay: Partial agonist activity at human alpha7 nAChR expressed in Xenopus laevis oocytes at 10 uM at -60 mV holding potential by measuring net charge by two electrode voltage-clamp assay; assay type: cell-based; conditions: Oocyte
[4] = target: T1, Neuronal acetylcholine receptor subunit alpha-7; assay: Partial agonist activity at human alpha7 nAChR expressed in Xenopus laevis oocytes assessed as direct potentiation of Ach response at 10 uM at -60 mV holding potential by measuring net charge co-application of compound and PNU-120596 by two electrode voltage-clamp assay; assay type: cell-based; conditions: Oocyte
[5] = target: T1, Neuronal acetylcholine receptor subunit alpha-7; assay: Partial agonist activity at human alpha7 nAChR expressed in Xenopus laevis oocytes at -60 mV holding potential by two electrode voltage-clamp assay; assay type: cell-based, Oocyte; conditions: for Imax: Oocyte, filed as partial agonist
[6] = target: T1, Neuronal acetylcholine receptor subunit alpha-7; assay: Partial agonist activity at human alpha7 nAChR expressed in Xenopus laevis oocytes at 1 to 30 uM at -60 mV holding potential by two electrode voltage-clamp assay; assay type: cell-based; conditions: Oocyte, dose 1-30 µM
[7] = target: T1, Neuronal acetylcholine receptor subunit alpha-7; assay: as §1, with “residual potentiation” for “inhibition”, “3” for “10 to 30”, “addition after PNU-120596 addition” for “addition”; assay type: cell-based; conditions: Oocyte, filed as partial agonist
[8] = target: T1, Neuronal acetylcholine receptor subunit alpha-7; assay: as §1, with “residual potentiation” for “inhibition”, “at” for “at 10 to”, “addition after PNU-120596 addition” for “addition”; assay type: cell-based; conditions: Oocyte, filed as partial agonist
[9] = target: T1, Neuronal acetylcholine receptor subunit alpha-7; assay: Partial agonist activity at human alpha7 nAChR expressed in Xenopus laevis oocytes assessed as inhibition of Ach response at 30 uM at -60 mV holding potential by measuring net charge preincubated with compound followed by Ach stimulation by two electrode voltage-clamp assay; assay type: cell-based; conditions: Oocyte, filed as partial agonist
[10] = target: T1, Neuronal acetylcholine receptor subunit alpha-7; assay: Partial agonist activity at human alpha7 nAChR expressed in Xenopus laevis oocytes assessed as direct potentiation of Ach response at 30 uM at -60 mV holding potential by measuring net charge co-application of compound and PNU-120596 by two electrode voltage-clamp assay; assay type: cell-based; conditions: Oocyte, filed as partial agonist
[11] = target: T1, Neuronal acetylcholine receptor subunit alpha-7; assay: Partial agonist activity at human alpha7 nAChR expressed in Xenopus laevis oocytes assessed as inhibition of Ach response at 3 uM at -60 mV holding potential by measuring net charge preincubated with compound followed by Ach stimulation by two electrode voltage-clamp assay; assay type: cell-based; conditions: Oocyte

Row | Structure (SMILES) | Activity ([1]; filed as partial agonist) | Activity [2] | Activity ([3]; filed as partial agonist) | Activity [1] | Activity ([2]; filed as partial agonist) | Activity [3] | Activity ([4]; filed as partial agonist) | other results
1 | O=C(c1ccc(-c2ccc3ccccc3c2)o1)N1CCN2CCC1CC2 | 1.18 | inactive | 0.15 |  |  |  |  | Activity [4]: inactive
2 | O=C(c1ccc(-c2cccc(Cl)c2)o1)N1CCN2CCC1CC2 |  |  |  | 0.04 | Active | inactive |  | 
3 | CC(=O)N1CCN2CCC1CC2 |  | inactive |  |  |  | inactive | Active | 
4 | Nc1cccc(-c2ccc(C(=O)N3CCN4CCC3CC4)o2)c1 | 0.5 |  | 0.1 |  |  |  | 24.6 | 
5 | C1CN2CCC(CC2)N1 |  | inactive |  | inactive |  | inactive |  | Activity [4]: inactive
6 | O=C(c1ccc(-c2cccc(C(F)(F)F)c2)o1)N1C[C@@H]2C[C@H]1CN2 |  | inactive |  | inactive |  | inactive | 15.2 | 
7 | O=C(c1ccc(-c2cccc(I)c2)o1)N1CCN2CCC1CC2 | Active |  |  |  | Active | inactive |  | 
8 | O=C(c1ccc(-c2cccc(F)c2)o1)N1CCN2CCC1CC2 | Active |  |  |  | Active | inactive |  | 
9 | Cc1cccc(-c2ccc(C(=O)N3CCN4CCC3CC4)o2)c1 | 0.2 |  |  |  | 30.7 | inactive |  | 
10 | O=C(c1ccc(-c2cccc(Br)c2)o1)N1CCN2CCC1CC2 | Active |  |  |  | Active | inactive |  | 
11 | CCN1CCN2CCC1CC2 |  |  |  | inactive |  | inactive |  | Activity [4]: inactive
12 | O=C(c1ccc(-c2ccccc2)o1)N1CCN2CCC1CC2 | 0.14 |  | 0.54 |  | 18.3 |  |  | 
13 | O=C(c1ccco1)N1CCN2CCC1CC2 |  | inactive | 0.71 |  |  |  | Active | EC50 [5]: 764 nM; Imax [5]: 0.71
14 | O=C(c1ccc(-c2cccc(C(F)(F)F)c2)o1)N1C[C@H]2C[C@@H]1CN2 |  | inactive |  | inactive |  | inactive | 43.7 | 
15 | O=C(c1ccc(-c2cncc3ccccc23)o1)N1CCN2CCC1CC2 | 0.94 | inactive | 0.11 |  |  |  | 20.4 | 
16 | O=C(c1ccc(-c2cccc(O)c2)o1)N1CCN2CCC1CC2 |  |  |  | inactive | Active | inactive |  | 
17 | O=C(c1ccc(-c2cccc([N+](=O)[O-])c2)o1)N1CCN2CCC1CC2 |  |  |  | inactive | 4.78 | inactive | 12.2 | 
18 | O=C(c1ccc(-c2ccoc2)o1)N1CCN2CCC1CC2 | Active |  | Active |  | Active |  |  | 
19 | O=C(c1ccc(-c2cccc(C(F)(F)F)c2)o1)N1CCN2CCC1CC2 | 0.19 |  |  |  | 111 |  |  | Activity [6]: inactive; Activity [7]: 123; Activity [8]: 57.4; Activity [9]: 0.18; Activity [10]: 2.73; Activity [11]: inactive
20 | C[N+]12CCC(CC1)N(C(=O)c1ccc(-c3cccc(C(F)(F)F)c3)o1)CC2 |  |  | 0.79 |  | 1.39 |  | Active | EC50 [5]: 322 nM; Imax [5]: 0.81
21 | CCN(CC)C(=O)c1ccc(-c2cccc(C(F)(F)F)c2)o1 |  | inactive |  | inactive |  | inactive |  | Activity [4]: inactive
22 | O=C(c1ccc(-c2ccc(C(F)(F)F)cc2)o1)N1CCN2CCC1CC2 | 0.64 |  | 0.4 |  | 3.23 |  | 6.25 | 
23 | FC(F)(F)c1cccc(-c2ccc(CN3CCN4CCC3CC4)o2)c1 |  | inactive |  |  |  | inactive |  | Activity [4]: inactive
24 | O=C(c1ccc(-c2cccc(C(F)(F)F)c2)o1)N1CC2CCN(CC2)C1 |  | inactive |  | inactive |  | inactive |  | Activity [4]: inactive
